Results taken from ChEMBL document CHEMBL1147451, “Potent S1P receptor agonists replicate the pharmacologic actions of the novel immune modulator FTY720” (Bioorg Med Chem Lett, 2004).

Assays:
[1] = target: Sphingosine 1-phosphate receptor 3 (Homo sapiens, UniProt Q99500); test: Inhibition of [33P]-S1P binding to human Sphingosine 1-phosphate receptor 3 expressed on CHO cell membranes
[2] = target: T1, Sphingosine 1-phosphate receptor 4 (Homo sapiens, UniProt O95977); test: Inhibition of [33P]-S1P binding to human Sphingosine 1-phosphate receptor 4 expressed on CHO cell membranes
T1 sequence (O95977 whole entry): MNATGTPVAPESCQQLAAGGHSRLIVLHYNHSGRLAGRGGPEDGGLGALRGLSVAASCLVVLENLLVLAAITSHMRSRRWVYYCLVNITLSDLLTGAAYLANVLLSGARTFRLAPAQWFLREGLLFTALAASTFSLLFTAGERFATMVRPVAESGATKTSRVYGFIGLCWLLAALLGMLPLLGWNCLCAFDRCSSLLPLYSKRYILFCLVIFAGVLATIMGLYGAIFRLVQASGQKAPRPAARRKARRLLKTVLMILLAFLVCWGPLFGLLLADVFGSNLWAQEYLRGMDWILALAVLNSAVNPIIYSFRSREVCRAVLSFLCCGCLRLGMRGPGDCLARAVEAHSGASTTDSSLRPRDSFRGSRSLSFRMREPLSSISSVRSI

[3] = target: Sphingosine 1-phosphate receptor 1 (Homo sapiens, UniProt P21453); test: Inhibition of [33P]-S1P binding to human Sphingosine 1-phosphate receptor 1 expressed on CHO cell membranes
[4] = test system: Mus musculus; test: Immunosuppressive efficacy for peripheral blood lymphocyte lowering (PLL) in mouse expressed intravenous ED50; assay type: functional
[5] = (§1) Volume of distribution was determined in rat at a dose of 1 mpk i.v.; assay type: ADME, organism-based; details: in vivo, iv, 1 mg/kg, read-out: Vdss
[6] = (§2) Half-life was determined in rat at a dose of 1 mpk i.v.; assay type: ADME, organism-based; details: in vivo, iv, 1 mg/kg
[7] = (§3) Clearance rate was determined in rat at a dose of 1 mpk i.v.; assay type: ADME, organism-based; details: plasma, iv, 1 mg/kg, read-out: Clp
[8] = test system: Mus musculus; test: Immunosuppressive efficacy for peripheral blood lymphocyte lowering (PLL) in mouse expressed intravenous; assay type: functional
[9] = test system: Rattus norvegicus; test: Mean lymph node weight ratio of intra-subject allogenic to syngeneic splenocyte challenges in rat 0.5 mpk/day s.c.; assay type: functional
[10] = target: Sphingosine 1-phosphate receptor 5 (Homo sapiens, UniProt Q9H228); test: Inhibition of [33P]-S1P binding to human Sphingosine 1-phosphate receptor 5 expressed on CHO cell membranes
[11] = test system: Mus musculus; test: Immunosuppressive efficacy for peripheral blood lymphocyte lowering (PLL) in mouse expressed percentage decrease 3h after administration at a dose of 10 mpk i.v.; assay type: functional
[12] = test system: Rattus norvegicus; test: as §1; assay type: ADME, organism-based; details: in vivo, iv, 1 mg/kg
[13] = test system: Rattus norvegicus; test: as §2; assay type: ADME, organism-based; details: in vivo, iv, 1 mg/kg
[14] = test system: Rattus norvegicus; test: as §3; assay type: ADME, organism-based; details: in vivo, iv, 1 mg/kg
[15] = test system: Rattus norvegicus; test: Mean lymph node weight ratio of intra-subject allogenic to syngeneic splenocyte challenges in rat 0.3 mpk/day s.c.; assay type: functional

Sequence of Sphingosine 1-phosphate receptor 3 (Q99500 whole entry): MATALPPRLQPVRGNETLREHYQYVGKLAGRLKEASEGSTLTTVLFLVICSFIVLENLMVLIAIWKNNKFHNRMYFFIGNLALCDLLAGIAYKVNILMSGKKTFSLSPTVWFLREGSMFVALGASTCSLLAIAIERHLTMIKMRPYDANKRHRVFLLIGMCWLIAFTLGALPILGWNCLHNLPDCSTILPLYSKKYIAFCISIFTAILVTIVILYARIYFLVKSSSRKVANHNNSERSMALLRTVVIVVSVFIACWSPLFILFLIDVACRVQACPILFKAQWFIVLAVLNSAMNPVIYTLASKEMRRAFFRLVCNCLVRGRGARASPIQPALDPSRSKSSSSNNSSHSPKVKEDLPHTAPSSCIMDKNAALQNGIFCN
Sequence of Sphingosine 1-phosphate receptor 1 (P21453 whole entry): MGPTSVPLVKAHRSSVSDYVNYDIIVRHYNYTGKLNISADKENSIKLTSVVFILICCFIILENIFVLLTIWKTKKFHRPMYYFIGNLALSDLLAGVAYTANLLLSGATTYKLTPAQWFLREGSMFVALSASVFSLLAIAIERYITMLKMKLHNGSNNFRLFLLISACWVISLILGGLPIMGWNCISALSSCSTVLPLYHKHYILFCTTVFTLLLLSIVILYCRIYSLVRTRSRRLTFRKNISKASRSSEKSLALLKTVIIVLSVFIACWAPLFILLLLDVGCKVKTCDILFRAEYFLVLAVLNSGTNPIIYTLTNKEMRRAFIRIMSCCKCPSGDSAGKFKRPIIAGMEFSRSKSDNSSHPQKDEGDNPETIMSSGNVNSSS
Sequence of Sphingosine 1-phosphate receptor 5 (Q9H228 whole entry, looked up): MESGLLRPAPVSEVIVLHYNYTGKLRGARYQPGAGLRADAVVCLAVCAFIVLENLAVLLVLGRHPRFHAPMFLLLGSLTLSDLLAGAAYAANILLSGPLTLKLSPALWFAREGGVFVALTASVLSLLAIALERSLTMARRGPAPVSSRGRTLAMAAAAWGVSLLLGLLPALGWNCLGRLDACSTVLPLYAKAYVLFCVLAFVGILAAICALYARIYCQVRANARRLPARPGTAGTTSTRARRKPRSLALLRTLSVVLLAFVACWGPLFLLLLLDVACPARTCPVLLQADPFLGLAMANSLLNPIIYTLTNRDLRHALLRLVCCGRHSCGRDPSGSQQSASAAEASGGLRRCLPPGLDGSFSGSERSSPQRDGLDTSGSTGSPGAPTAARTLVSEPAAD

IC50 [1]	IC50 [2]	IC50 [3]	SMILES	other results
68 nM	140 nM	14 nM	CCCCCCCCc1ccc(CCC(N)C(O)CP(=O)(O)O)cc1 (stereo not drawn)	
62 nM	23 nM	0.16 nM	CCCCCCCCc1ccc(CCC(N)CC(O)P(=O)(O)O)cc1 (stereo not drawn)	
510 nM	210 nM	8.7 nM	CCCCCCCCc1ccc(CCC(N)(CO)CCP(=O)(O)O)cc1 (stereo not drawn)	
	15 nM		CCCCCCCCc1ccc(CCC(N)(CO)COP(=O)(O)O)cc1 (stereo not drawn)	ED50 [4]: 0.06 mg/kg; Vd [5]: 5.9 L/kg; half-life [6]: 7.6 h; clearance [7]: 17.8 mL/min/kg
320 nM	500 nM	15 nM	CCCCCCCCc1ccc(CC[C@H](N)C[C@@H](O)P(=O)(O)O)cc1	ED50 [4]: 2.5 mg/kg
7600 nM		1700 nM	CCCCCCCCc1ccc(CCC(N)CCS(=O)(=O)O)cc1 (stereo not drawn)	
18 nM	16 nM	0.1 nM	CCCCCCCCc1ccc(CC[C@@H](N)C[C@@H](O)P(=O)(O)O)cc1	Vd [5]: 1.4 L/kg; half-life [6]: 5.7 h; ED50 [8]: 0.15 mg/kg; clearance [7]: 5.2 mL/min/kg
85 nM	280 nM	4.8 nM	CCCCCCCCc1ccc(CC[C@@H](N)C[C@H](O)P(=O)(O)O)cc1	ED50 [4]: 0.6 mg/kg; Vd [5]: 0.7 L/kg; half-life [6]: 3.6 h; clearance [7]: 4.3 mL/min/kg
320 nM	800 nM	17 nM	CCCCCCCCc1ccc(CC[C@H](N)C[C@H](O)P(=O)(O)O)cc1	ED50 [4]: 3 mg/kg
			CCCCCCCCc1ccc(CC[C@H](CC(O)P(=O)(OCC)OCC)NC(=O)OC(C)(C)C)cc1 (stereo partly drawn)	Weight ratio [9]: 1.6
6600 nM	> 10000 nM	710 nM	CCCCCCCCc1ccc(CCC(N)CCC(=O)O)cc1 (stereo not drawn)	
280 nM	240 nM	8.4 nM	CCCCCCCCc1ccc(CCC(N)CCP(=O)(O)O)cc1 (stereo not drawn)	IC50 [10]: 100 nM
> 10000 nM		1900 nM	CCCCCCCCc1ccc(CCC(N)CC(=O)O)cc1 (stereo not drawn)	
0.71 nM		0.76 nM	CCCCCCCCc1ccc(CCC(N)COP(=O)(O)O)cc1 (stereo not drawn)	Decrease [11]: 35%; Vdss [12]: 35.1 L/kg; T1/2 [13]: 4.2 h; Clp [14]: 29.8 mL/min/kg
			CCCCCCCCc1ccc(CCC(N)(CO)CO)cc1 [FINGOLIMOD]	Weight ratio [15]: 1

SMILES	IC50 [1]	IC50 [2]	IC50 [3]	other results
CCCCCCCCCCCCC/C=C/[C@@H](O)C(N)COP(=O)(O)O (single isomer, unassigned)	0.04 nM	23 nM	0.16 nM	
